Literature values in patent US20040096950A1, “Crystal structure of beta site APP cleaving enzyme (BACE) and methods of use thereof” (priority 2002, published 2004).
Where a SMILES comes first, the peptide text is derived from it. [ ]: non-standard residue; d: D form. The star is where a group is joined. Sta = CC(C)C[C@H](N)[C@@H](O)CC(=O)O; Isovaleryl = CC(C)CC(=O)*

Biological target: BACE (Homo sapiens, UniProt P56817)
Conditions: background statement, no concentration given

Chain of BACE (P56817 46-501): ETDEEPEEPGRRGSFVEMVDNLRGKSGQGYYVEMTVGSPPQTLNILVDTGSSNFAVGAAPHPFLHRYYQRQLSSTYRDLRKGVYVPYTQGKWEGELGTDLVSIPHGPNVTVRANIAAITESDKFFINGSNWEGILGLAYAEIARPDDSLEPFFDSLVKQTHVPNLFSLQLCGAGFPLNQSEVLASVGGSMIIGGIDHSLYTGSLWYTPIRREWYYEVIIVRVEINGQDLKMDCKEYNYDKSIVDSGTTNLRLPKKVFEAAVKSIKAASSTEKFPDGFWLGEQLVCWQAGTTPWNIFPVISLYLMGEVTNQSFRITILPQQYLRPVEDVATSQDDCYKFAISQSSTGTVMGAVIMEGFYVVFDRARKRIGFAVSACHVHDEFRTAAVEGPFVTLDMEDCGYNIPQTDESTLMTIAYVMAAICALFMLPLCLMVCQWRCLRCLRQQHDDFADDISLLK

- inhibition of BACE: inhibited weakly
Structure (SMILES): CC(C)CC(=O)N[C@H](C(=O)N[C@H](C(=O)N[C@@H](CC(C)C)[C@@H](O)CC(=O)N[C@@H](C)C(=O)N[C@@H](CC(C)C)[C@@H](O)CC(=O)O)C(C)C)C(C)C [pepstatin] (Isovaleryl-VV[Sta]A[Sta]-OH)
